Patent US5629321A, “Bicyclic compound and platelet aggregation inhibitor containing the same” (Mitsui Toatsu Chemicals, Inc., priority 1994, dated 1997)
Counter-ions that a name gives are not always drawn.

Key:
platelet aggregation [1] = assay: Inhibition of platelet aggregation in Guinea pig (ADP-induced, platelet-rich plasma); type: cell-based, male guinea pig; details: Cavia porcellus, guinea pig PRP, ADP final concentration 5 μM, 37° C.
Procedure: 1. Inhibition of platelet aggregation in Guinea pig
Blood of male guinea pig was collected with an injection syringe which contains 3.8% sodium citrate as an anticoagulant in a ratio of 1 volume to 9 volumes of the blood. Successively, the collected blood mixture was subjected to centrifugation at 120×g for 15 minutes at room temperature to obtain platelet-rich plasma (PRP). The residual blood after separating PRP was further subjected to centrifugation at 1,200×g for 15 minutes to obtain platelet-poor plasma (PPP). Numbers of the platelet in PRP were measured with an automatic platelet counter: Sysmex PL-100 (manufactured by Toa Iyodensi Co.) and PRP was diluted with PPP so as to adjust a platelet concentration to be about 300,000 particles/μ 1. Platelet aggregation was measured by the following procedure with a 6 channel aggregometer: HEMA TRACER 1 (manufactured by NKK Co.).
(§1) After warming 240 μl of PRP at 37° C. for 2 minutes, 30 μl of the solvent of specimen as a control or of the specimen having various concentrations was added to PRP. Further 2 minutes later, 30 μl of adenosine diphosphate (final concentration: 5 μM) was added to induce platelet aggregation. An inhibition percentage was obtained by comparing the maximum aggregation rate of the specimen drug group with that of control. […]

platelet aggregation [2] = assay: Inhibition of platelet aggregation in human (ADP-induced, platelet-rich plasma); type: cell-based; details: human PRP, ADP final concentration 5 μM, 37° C.
Procedure: 2. Inhibition of platelet aggregation in human
Blood was collected from healthy human volunteers with an injection syringe and mixed one volume of 3.8% sodium citrate as an anticoagulant to 9 volumes of the blood. Successively, the obtained blood mixture was subjected to centrifugation at 120×g for 15 minutes at room temperature to obtain platelet-rich plasma (PRP). The residual blood after separating the PRP was further subjected to centrifugation at 1,200×g for 20 minutes to obtain platelet-poor plasma (PPP). Numbers of the platelet were measured with an automatic platelet counter: Sysmex PL-100 (manufactured by Toa Iyodensi Co.) and PRP was diluted with PPP so as to adjust a platelet concentration to be about 250,000 particles/μl. Platelet aggregation was measured by the following procedure with a 6 channel aggregometer: HEMA TRACER 1 (manufactured by NKK Co.)
as §1, with “or” for “or of”

Row | SMILES | IC50 (platelet aggregation [1]) | IC50 (platelet aggregation [2])
1 | N=C(N)c1ccc(C(=O)Nc2ccc3c(c2)C(=O)N(CC(=O)O)CC3)cc1 [Comparative compound, 7-[(4-amidinobenzoyl)amino]-l-oxo-3,4-dihydroisoquinolone-2-acetic acid hydrochloride, reference compound] | > 100000 nM | 3900 nM
2 | N=C(N)c1ccc(C(=O)Nc2ccc3c(c2)CC(CC(=O)O)CC3)cc1 (stereo not shown) [Compound No. 1, 7-[(4-amidinobenzoyl)amino]-1,2,3,4-tetrahydronaphthalene-2-acetic acid] | 370 nM | 57 nM
3 | CCOC(=O)CC1CCc2ccc(NC(=O)c3ccc(C(=N)N)cc3)cc2C1 (stereo not shown) [Compound No. 3, ethyl 7-[(4-amidinobenzoyl)amino]-1,2,3,4-tetrahydronaphthalene-2-acetate] | 400 nM | 
4 | N=C(N)c1ccc(NC(=O)c2ccc3c(c2)CC(CC(=O)O)CC3)cc1 (stereo not shown) [Compound No. 9, 7-[N-(4-amidinophenyl)carbamoyl]-1,2,3,4-tetrahydronaphthalene-2-acetic acid] | 230 nM | 46 nM
5 | CCOC(=O)CC1CCc2ccc(C(=O)Nc3ccc(C(=N)N)cc3)cc2C1 (stereo not shown) [Compound No. 11, ethyl 7-[N-(4-amidinophenyl)carbamoyl]-1,2,3,4-tetrahydronaphthalene-2-acetate] | 340 nM | 
6 | N=C(N)c1ccc(C(=O)Nc2ccc3c(c2)CC(CC(=O)O)CO3)cc1 (stereo not shown) [Compound No. 17, 6-[(4-amidinobenzoyl)amino]chroman-3-acetic acid] |  | 49 nM
7 | N=C(N)c1ccc(C(=O)Nc2ccc3c(c2)CN(CC(=O)O)CC3)cc1 [Compound No. 28, 7-[(4-amidinobenzoyl)amino]-1,2,3,4-tetrahydroisoquinoline-2-acetic acid] | 6600 nM | 293 nM
8 | CN(C(=O)c1ccc(C(=N)N)cc1)c1ccc2c(c1)CC(CC(=O)O)CC2 (stereo not shown) [Compound No. 47, 7-[N-(4-amidinobenzoyl)-N-methylamino]-1,2,3,4-tetrahydronaphthalene-2-acetic acid] | 1770 nM | 194 nM
9 | CN(C(=O)c1ccc2c(c1)CC(CC(=O)O)CC2)c1ccc(C(=N)N)cc1 (stereo not shown) [Compound No. 56, 7-[N-(4-amidinophenyl)-N-methylcarbamoyl]-1,2,3,4-tetrahydronaphthalene-2-acetic acid] | 340 nM | 115 nM
10 | N=C(N)c1ccc(COc2ccc3c(c2)CC(CC(=O)O)CC3)cc1 (stereo not shown) [Compound No. 80, 7-[(4-amidinobenzyl)oxy]-1,2,3,4-tetrahydronaphthalene-2-acetic acid] |  | 1500 nM
11 | COC(=O)CC1CCc2ccc(OCc3ccc(C(=N)N)cc3)cc2C1 (stereo not shown) [Compound No. 81, methyl 7-[(4-amidinobenzyl)oxy]-1,2,3,4-tetrahydronaphthalene-2-acetate] | 22000 nM | 
12 | N=C(N)c1ccc(OCc2ccc3c(c2)CC(CC(=O)O)CC3)cc1 (stereo not shown) [Compound No. 82, 7-[(4-amidinophenoxy)methyl]-1,2,3,4-tetrahydronaphthalene-2-acetic acid] | 39000 nM | 
13 | N=C(N)c1ccc(CNc2ccc3c(c2)CC(CC(=O)O)CC3)cc1 (stereo not shown) [Compound No. 84, 7-[(4-amidinobenzyl)amino]-1,2,3,4-tetrahydronaphthalene-2-acetic acid] | 24000 nM | 
14 | N=C(N)c1ccc(COc2ccc3c(c2)CC(CC(=O)O)CO3)cc1 (stereo not shown) [Compound No. 89, 6-[(4-amidinobenzyl)oxy]chroman-3-acetic acid] | 12000 nM | 
15 | CCOC(=O)CC1COc2ccc(OCc3ccc(C(=N)N)cc3)cc2C1 (stereo not shown) [Compound No. 90, ethyl 6-[(4-amidinobenzyl)oxy]chroman-3-acetate] | 17000 nM | 
16 | N=C(N)c1ccc(COc2ccc3c(c2)C=C(CC(=O)O)CC3)cc1 [Compound No. 91, 7-[(4-amidinobenzyl)oxy]-3,4-dihydronaphthalene-2-acetic acid] | 41000 nM | 
17 | N=C(N)Nc1ccc(C(=O)Nc2ccc3c(c2)CC(CC(=O)O)CC3)cc1 (stereo not shown) [Compound No. 93, 7-[(4-guanidinobenzoyl)amino]-1,2,3,4-tetrahydronaphthalene-2-acetic acid] | 27000 nM | 
18 | NCc1ccc(C(=O)Nc2ccc3c(c2)CC(CC(=O)O)CC3)cc1 (stereo not shown) [Compound No. 123, 7-[(4-aminomethylbenzoyl)amino]-1,2,3,4-tetrahydronaphthalene-2-acetic acid] | 14000 nM | 
19 | CCOC(=O)CN1CCc2ccc(C(=O)Nc3ccc(C(=N)N)cc3)cc2C1 [compound 37, ethyl 7-[N-(4-amidinophenyl)carbamoyl]-1,2,3,4-tetrahydroisoquinoline-2-acetate] | 4300 nM | 
